What follows are molecules tested on VEGF-dependent Erk phosphorylation in HUVEC cells (assay: VEGF-dependent Erk phosphorylation). Conditions: Homo sapiens, 1.5 h compound, VEGF165 150 ng/ml, phospho ERK1/2 Western blot.
Format: cell-based
Description: VEGF-Dependent Erk Phosphorylation
HUVEC cells were purchased from Cambrex Bio Science Walkersville, Inc and cultured according to the vendor's instructions. The full-length coding sequence of VEGF165 was cloned using the Gateway Cloning Technology (Invitrogen) for baculovirus expression Sf9 cells. VEGF165 was purified from conditioned media using a NaCl gradient elution from a HiTrap heparin column (GE Healthcare Life Sciences) followed by an imidazole gradient elution from a HiTrap chelating column (GE Healthcare Life Sciences), then buffer stored in PBS supplemented with 0.1% BSA and filter sterilized
Cells were seeded at 8000 cells/well of a 96 wells plate and grown for 48 hours. Cells were then grown overnight in serum and growth factor-free medium and exposed for 1.5 h to compounds dilutions. Following a 15 min incubation in medium, VEGF165 (150 ng/ml) cells were lysed in ice-cold lysis buffer (50 mM HEPES, pH 7.4, 150 mM NaCl, 1.5 mM MgCl2, 1% Triton X-100, 10% glycerol) containing 1 mM 4-(2 aminoethyl)benzenesulfonyl fluoride hydrochloride, 200 μM sodium orthovanadate, 1 mM sodium fluoride, 10 μg/mL leupeptin, 10 μg/mL aprotinin, 1 μg/mL pepstatin and 50 μg/mL Na-p-tosyl-L-lysine chloromethyl ketone hydrochloride and processed as Western blots to detect anti-phospho ERK1/2 (T202/Y204) (Cell Signaling Technologies).
lysates samples from single treatment wells were separated on 5-20% SDS-PAGE gels and immunobloting was performed using Immobilon polyvinylidene difluoride membranes (Amersham) according to the manufacturer's instructions.

Row | Compound | IC50 [nM]
1 | COCCNCc1ccc(-c2cc3nccc(Oc4ccc(NC(=O)CC(=O)Nc5cccc(C(N)=O)c5)cc4F)c3s2)nc1 | < 250
2 | COCCNCc1cnc(-c2cc3nccc(Oc4ccc(NC(=O)NC5CC5)cc4F)c3s2)n1C [drawing 131] | < 250
3 | CCOC(=O)N(CCOC)Cc1ccc(-c2cc3nccc(Oc4ccc(NC(=O)NC5CC5)cc4F)c3s2)nc1 | < 250
4 | COCCNCc1ccc(-c2cc3nccc(Oc4ccc(NC(=O)CC(=O)Nc5cccc(S(C)(=O)=O)c5)cc4F)c3s2)nc1 | < 250
5 | COCCNCc1ccc(-c2cc3nccc(Oc4ccc(NC(=O)CC(=O)NC5CCC5)cc4F)c3s2)nc1 | < 250
6 | COCCN(Cc1ccc(-c2cc3nccc(Oc4ccc(NC(=O)Nc5cccc(C(=O)N(C)C)c5)cc4F)c3s2)nc1)C(C)=O | < 250
7 | COCCNCc1ccc(-c2cc3nccc(Oc4ccc(NC(=O)OC5CCCCC5)cc4F)c3s2)nc1 | < 250
8 | COCCN(Cc1cnc(-c2cc3nccc(Oc4ccc(NC(=O)NC5CC5)cc4F)c3s2)n1C)S(C)(=O)=O [drawing 137] | < 250
9 | COCCNCc1cnc(-c2cc3nccc(Oc4ccc(NC(=O)Nc5cccc(C(N)=O)c5)cc4F)c3s2)n1C | < 250
10 | COCCNCc1cnc(-c2cc3nccc(Oc4ccc(NC(=O)Nc5ccc(F)cc5F)cc4F)c3s2)n1C [drawing 134] | < 250
11 | COCCNCc1ccc(-c2cc3nccc(Oc4ccc(NC(=O)N[C@@H]5CCOC5)cc4F)c3s2)nc1 | < 250
12 | COCCNCc1ccc(-c2cc3nccc(Oc4ccc(NC(=O)Nc5ccn(C)n5)cc4F)c3s2)nc1 | < 250
13 | COCCOCCOCCOCCN(Cc1ccc(-c2cc3nccc(Oc4ccc(NC(=O)NC5CC5)cc4F)c3s2)nc1)C(C)=O | < 250
14 | COCCNCc1cnc(-c2cc3nccc(Oc4ccc(NC(=O)Nc5cc(C(F)(F)F)ccc5F)cc4F)c3s2)n1C | < 250
15 | COCCNCc1ccc(-c2cc3nccc(Oc4ccc(NC(=O)NC(C)C)cc4F)c3s2)nc1 | < 250
16 | COCCN(Cc1ccc(-c2cc3nccc(Oc4ccc(NC(=O)Nc5cccc(C(N)=O)c5)cc4F)c3s2)nc1)C(C)=O | < 250
17 | COC[C@H](C)NCc1ccc(-c2cc3nccc(Oc4ccc(NC(=O)NC5CC5)cc4F)c3s2)nc1 | < 250
18 | COCCNCc1ccc(-c2cc3nccc(Oc4ccc(NC(=O)NC5CCC5)cc4F)c3s2)nc1 [drawing 153] | < 250

What follows are molecules tested against T1, VEGFR2 (KDR) (Homo sapiens, UniProt P35968) (assay: In vitro receptor tyrosine kinase assay (VEGF receptor KDR), DELFIA). Conditions: recombinant GST-VEGFR2 catalytic domain, ATP 0.6 uM, enzyme 5 nM.
T1 construct: made in house; host or cells: Sf9 cells (Spodoptera frugiperda), baculovirus (Bac-to-Bac)
T1 sequence (P35968 806-1356): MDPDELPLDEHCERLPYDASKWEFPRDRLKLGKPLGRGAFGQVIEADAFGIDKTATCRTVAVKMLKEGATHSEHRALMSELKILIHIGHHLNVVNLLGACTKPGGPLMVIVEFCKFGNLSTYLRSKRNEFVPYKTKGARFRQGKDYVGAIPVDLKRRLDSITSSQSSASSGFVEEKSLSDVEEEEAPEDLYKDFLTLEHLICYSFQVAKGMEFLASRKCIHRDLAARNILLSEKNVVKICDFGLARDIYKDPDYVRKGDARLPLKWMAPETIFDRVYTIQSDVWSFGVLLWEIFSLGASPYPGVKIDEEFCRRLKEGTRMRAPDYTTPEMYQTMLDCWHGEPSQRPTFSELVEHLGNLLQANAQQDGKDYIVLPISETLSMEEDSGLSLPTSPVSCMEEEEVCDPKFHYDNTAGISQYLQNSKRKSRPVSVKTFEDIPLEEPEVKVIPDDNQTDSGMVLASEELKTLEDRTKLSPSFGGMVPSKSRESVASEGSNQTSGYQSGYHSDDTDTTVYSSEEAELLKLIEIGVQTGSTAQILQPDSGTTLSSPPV
Format: biochemical
Description: In Vitro Receptor Tyrosine Kinase Assay (VEGF Receptor KDR)
This test measures the ability of compounds to inhibit the enzymatic activity of recombinant human VEGF receptor enzymatic activity.
A 1.6-kb cDNA corresponding to the catalytic domain of VEGFR2 (KDR) (Genbank accession number AF035121 amino acid 806 to 1356) is cloned into the Pst I site of the pDEST20 Gateway vector (Invitrogen) for the production of a GST-tagged version of that enzyme. This constuct is used to generate recombinant baculovirus using the Bac-to-Bac™ system according to the manucfacturer's instructions (Invitrogen).
The GST-VEGFR2806-1356 protein is expressed in Sf9 cells (Spodoptera frugiperda) upon infection with recombinant baculovirus construct. Briefly, Sf9 cells grown in suspension and maintained in serum-free medium (Sf900 II supplemented with gentamycin) at a cell density of about 2×10^6 cells/ml are infected with the above-mentioned viruses at a multiplicity of infection (MOI) of 0.1 during 72 hours at 27° C. with agitation at 120 rpm on a rotary shaker. Infected cells are harvested by centrifugation at 398 g for 15 min. Cell pellets are frozen at −80° C. until purification is performed.
All steps described in cell extraction and purification are performed at 4° C. Frozen Sf9 cell pellets infected with the GST-VEGFR2806-1356 recombinant baculovirus are thawed and gently resuspended in Buffer A (PBS pH 7.3 supplemented with 1 μg/ml pepstatin, 2 μg/ml Aprotinin and leupeptin, 50 μg/ml PMSF, 50 μg/ml TLCK and 10 μM E64 and 0.5 mM DTT) using 3 ml of buffer per gram of cells. Suspension is Dounce homogenized and 1% Triton X-100 is added to the homogenate after which it is centrifuged at 22500 g, 30 min., 4° C. The supernatant (cell extract) is used as starting material for purification of GST-VEGFR2806-1356.
The supernatant is loaded onto a GST-agarose column (Sigma) equilibrated with PBS pH 7.3. Following a four column volume (CV) wash with PBS pH 7.3+1% Triton X-100 and 4 CV wash with buffer B (50 mM Tris pH 8.0, 20% glycerol and 100mM NaCl), bound proteins are step eluted with 5 CV of buffer B supplemented with 5 mM DTT and 15 mM glutathion. GST-VEGFR2806-1356 enriched fractions from this chromatography step are pooled based on U.V. trace i.e. fractions with high O.D.280. Final GST-VEGFR2806-1356 protein preparations concentrations are about 0.7 mg/ml with purity approximating 70%. Purified GST-VEGFR2806-1356 protein stocks are aliquoted and frozen at −80° C. prior to use in enzymatic assay.
Inhibition of VEGFR/KDR is measured in a DELFIA™ assay (Perkin Elmer). The substrate poly(Glu4, Tyr) is immobilized onto black high-binding polystyrene 96-well plates. The coated plates are washed and stored at 4° C. During the assay, the enzyme is pre-incubated with inhibitor and Mg-ATP on ice in polypropylene 96-well plates for 4 minutes, and then transferred to the coated plates. The subsequent kinase reaction takes place at 30° C. for 10-30 minutes. ATP concentrations in the assay are 0.6 uM for VEGFR/KDR (2× the Km). Enzyme concentration is 5 nM. After incubation, the kinase reactions are quenched with EDTA and the plates are washed. Phosphorylated product is detected by incubation with Europium-labeled anti-phosphotyrosine MoAb. After washing the plates, bound MoAb is detected by time-resolved fluorescence in a Gemini SpectraMax reader (Molecular Devices). Compounds are evaluated over a range of concentrations and IC50's (concentration of compounds giving 50% inhibition of enzymatic activity) are determined. In the table, “a” indicates inhibitory activity at a concentration of less than 250 nanomolar; “b” indicates inhibitory activity at a concentration ≧250 but <500 nanomolar, “c” indicates inhibitory activity at ≧500 but <1000 nanomolar; and “d” indicates inhibitory activity ≧1000 nanomolar.

Row | Compound | IC50 [nM]
19 | COCCNCc1ccc(-c2cc3nccc(Oc4ccc(NC(=O)CC(=O)Nc5cccc(C(N)=O)c5)cc4F)c3s2)nc1 | 250 to 500
20 | COCCNCc1cnc(-c2cc3nccc(Oc4ccc(NC(=O)NC5CC5)cc4F)c3s2)n1C [drawing 131] | < 250
21 | CCOC(=O)N(CCOC)Cc1ccc(-c2cc3nccc(Oc4ccc(NC(=O)NC5CC5)cc4F)c3s2)nc1 | < 250
22 | COCCNCc1ccc(-c2cc3nccc(Oc4ccc(NC(=O)CC(=O)Nc5cccc(S(C)(=O)=O)c5)cc4F)c3s2)nc1 | < 250
23 | COCCNCc1ccc(-c2cc3nccc(Oc4ccc(NC(=O)CC(=O)NC5CCC5)cc4F)c3s2)nc1 | 250 to 500
24 | COCCN(Cc1ccc(-c2cc3nccc(Oc4ccc(NC(=O)Nc5cccc(C(=O)N(C)C)c5)cc4F)c3s2)nc1)C(C)=O | < 250
25 | COCCNCc1ccc(-c2cc3nccc(Oc4ccc(NC(=O)OC5CCCCC5)cc4F)c3s2)nc1 | ≥ 1000
26 | COCCN(Cc1cnc(-c2cc3nccc(Oc4ccc(NC(=O)NC5CC5)cc4F)c3s2)n1C)S(C)(=O)=O [drawing 137] | < 250
27 | COCCNCc1cnc(-c2cc3nccc(Oc4ccc(NC(=O)Nc5cccc(C(N)=O)c5)cc4F)c3s2)n1C | < 250
28 | COCCNCc1cnc(-c2cc3nccc(Oc4ccc(NC(=O)Nc5ccc(F)cc5F)cc4F)c3s2)n1C [drawing 134] | < 250
29 | COCCNCc1ccc(-c2cc3nccc(Oc4ccc(NC(=O)N[C@@H]5CCOC5)cc4F)c3s2)nc1 | ≥ 1000
30 | COCCNCc1ccc(-c2cc3nccc(Oc4ccc(NC(=O)Nc5ccn(C)n5)cc4F)c3s2)nc1 | < 250
31 | COCCOCCOCCOCCN(Cc1ccc(-c2cc3nccc(Oc4ccc(NC(=O)NC5CC5)cc4F)c3s2)nc1)C(C)=O | < 250
32 | COCCNCc1cnc(-c2cc3nccc(Oc4ccc(NC(=O)Nc5cc(C(F)(F)F)ccc5F)cc4F)c3s2)n1C | < 250
33 | COCCNCc1ccc(-c2cc3nccc(Oc4ccc(NC(=O)NC(C)C)cc4F)c3s2)nc1 | 500 to 1000
34 | COCCN(Cc1ccc(-c2cc3nccc(Oc4ccc(NC(=O)Nc5cccc(C(N)=O)c5)cc4F)c3s2)nc1)C(C)=O | < 250
35 | COC[C@H](C)NCc1ccc(-c2cc3nccc(Oc4ccc(NC(=O)NC5CC5)cc4F)c3s2)nc1 | < 250
36 | COCCNCc1ccc(-c2cc3nccc(Oc4ccc(NC(=O)NC5CCC5)cc4F)c3s2)nc1 [drawing 153] | < 250
